# Measured values: ChEMBL document CHEMBL1201862, “PubChem BioAssay data set” (2004)
#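 These data come from cells grown in 96-well plates and exposed to compound for 48 hours at five concentrations. At the GI50, growth is halved.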 Active and inactive are the calls of the source. No stated cut-off is given here; in the data, active = GI50 up to about 1.1 µM and inactive = higher.
# Columns and labels:
# Experiment in all cases: NCI tumour cell line growth inhibition, 48 h
# [1] = test system: SK-MEL-2
# [2] = test system: RXF 393
# [3] = test system: SF-295
# [4] = test system: HCT-116
# [5] = test system: HOP-92
# [6] = test system: K562
# [7] = test system: ACHN
# [8] = test system: NCI-H522
# [9] = test system: MOLT-4
# [10] = test system: MCF7
# [11] = test system: MDA-N
# [12] = test system: A498
# [13] = test system: DU-145
# [14] = test system: M14
# [15] = test system: SF-539
# [16] = test system: TK-10
# [17] = test system: SNB-19
# [18] = test system: UO-31
# [19] = test system: Malme-3M
SMILES,GI50 [1],GI50 [2],GI50 [3],GI50 [4],GI50 [5],GI50 [6],GI50 [7],GI50 [8],GI50 [9],GI50 [10],GI50 [11],GI50 [12],GI50 [13],GI50 [14],GI50 [15],GI50 [16],GI50 [17],GI50 [18],GI50 [19]
C=CC(C)(C)c1cc([C@@H]2COc3cc(O)ccc3C2=O)c(O)c(OC)c1OC,15.9 µM (inactive),0.0173 µM (active),12.2 µM (inactive),11.8 µM (inactive),6.1 µM (inactive),9.66 µM (inactive),16.2 µM (inactive),4.25 µM (inactive),7.01 µM (inactive),14.8 µM (inactive),7.6 µM (inactive),16.9 µM (inactive),14.8 µM (inactive),15.5 µM (inactive),18.8 µM (inactive),27.9 µM (inactive),13.5 µM (inactive),10.9 µM (inactive),10.8 µM (inactive)
O=c1[nH]c(=O)n(C/C=C/CO)nc1Br,> 100 µM (inactive),> 100 µM (inactive),> 100 µM (inactive),> 100 µM (inactive),> 100 µM (inactive),,> 100 µM (inactive),> 100 µM (inactive),> 100 µM (inactive),> 100 µM (inactive),> 100 µM (inactive),> 100 µM (inactive),> 100 µM (inactive),> 100 µM (inactive),> 100 µM (inactive),> 100 µM (inactive),> 100 µM (inactive),> 100 µM (inactive),> 100 µM (inactive)
Brc1ccc2[nH]cc(-c3csc(-c4ccccn4)n3)c2c1,44.8 µM (inactive),6.03 µM (inactive),6.68 µM (inactive),15.1 µM (inactive),20.8 µM (inactive),5.38 µM (inactive),5.85 µM (inactive),8.95 µM (inactive),5.28 µM (inactive),10.3 µM (inactive),27.6 µM (inactive),3.39 µM (inactive),17.9 µM (inactive),22.2 µM (inactive),25.3 µM (inactive),24.2 µM (inactive),35 µM (inactive),59.7 µM (inactive),22.1 µM (inactive)
COc1ccc2cc(CNCCCCCCNC(=O)Nc3cccc4ccccc34)ccc2c1,> 100 µM (inactive),> 100 µM (inactive),> 100 µM (inactive),> 100 µM (inactive),> 100 µM (inactive),> 100 µM (inactive),> 100 µM (inactive),> 100 µM (inactive),> 100 µM (inactive),> 100 µM (inactive),> 100 µM (inactive),> 100 µM (inactive),> 100 µM (inactive),> 100 µM (inactive),> 100 µM (inactive),> 100 µM (inactive),> 100 µM (inactive),,> 100 µM (inactive)
COCCOC(C)C(=O)C(O)S(=O)(=O)O (stereo not given),> 100 µM (inactive),> 100 µM (inactive),> 100 µM (inactive),> 100 µM (inactive),> 100 µM (inactive),> 100 µM (inactive),> 100 µM (inactive),> 100 µM (inactive),> 100 µM (inactive),> 100 µM (inactive),> 100 µM (inactive),> 100 µM (inactive),> 100 µM (inactive),> 100 µM (inactive),> 100 µM (inactive),> 100 µM (inactive),> 100 µM (inactive),> 100 µM (inactive),> 100 µM (inactive)
CC(C)C[C@H](NC(=O)[C@@H](N)Cc1cccc2ccccc12)B(O)O,0.0399 µM (active),< 0.017 µM (active),< 0.0241 µM (active),< 0.0165 µM (active),0.398 µM (active),,0.189 µM (active),0.187 µM (active),< 0.0177 µM (active),< 0.0232 µM (active),0.182 µM (active),< 0.0189 µM (active),0.44 µM (active),,0.0143 µM (active),< 0.0182 µM (active),2.47 µM (inactive),0.0331 µM (active),0.0224 µM (active)
